Reference: article PMC12377202, “Design, synthesis, and cytotoxic evaluation of quinazoline-based derivatives as VEGER-2 inhibitors: comparative study against EGFR kinase activity, induction of apoptosis, and molecular docking study” (RSC Advances, 2025)

What was measured:
Assay type in all cases: cell-based, human
[1] = tested on: MCF-7; assay: MTT anti-proliferative assay, MCF-7; details: Homo sapiens, MCF7
[2] = tested on: caspase-3; assay: Caspase-3 expression level in HepG-2 cells; details: for Caspase-3 ± SE: HepG-2, at IC50 concentrations, control 0.460
Method: (§1) All synthesized compounds were tested at their cytotoxic concentrations in HepG-2 cells for analysis of gene expression levels of apoptotic markers caspase-3, caspase-9, TNF-α, and IL-6 proteins, and only two active compounds were tested for BAX and Bcl-2 proteins.
(§2) through Flow cytometric analysis.
(§3) Pellets were collected again and incubated with
(§4) Total RNA from vehicle-treated
(§5) (Thermo Scientific, USA).
(§6) All experiments were performed in […]

[3] = tested on: TNF-alpha; assay: TNF-alpha level in HepG-2 cells; details: control 43.48
Method: as §1, §2, §3, §4, §5, §6

[4] = tested on: IL-6R; assay: IL-6R level in HepG-2 cells
Method: as §1, §2, §3, §4, §5, §6

[5] = tested on: caspase-9; assay: Caspase-9 expression level in HepG-2 cells; details: for Caspase-9 ± SE: HepG-2, at IC50 concentrations, control 11.01
Method: as §1, §2, §3, §4, §5, §6

[6] = tested on: K-562; assay: MTT anti-proliferative assay, K-562; details: Homo sapiens, K562
[7] = tested on: HepG-2; assay: MTT anti-proliferative assay, HepG-2; details: Homo sapiens, HepG2

In the case of `O=C(Cn1cnc2cc(Cl)ccc2c1=O)Nc1ccc(F)c(Cl)c1` [8e, N-(3-Chloro-4-fluorophenyl)-2-(7-chloro-4-oxoquinazolin-3(4H)-yl)acetamide], the viability at 0.195 µmol ([1]; MCF-7, 0.195 umol) is reported as 81.5%, the cytotoxicity at 0.195 µmol ([1]; MCF-7, 0.195 umol, read-out: Toxicity %) is reported as 18.5% and the viability at 0.391 µmol ([1]; MCF-7, 0.391 umol) is reported as 62.1%. It also gave a cytotoxicity at 0.391 µmol ([1]; MCF-7, 0.391 umol, read-out: Toxicity %) of 37.9%, a viability at 0.781 µmol ([1]; MCF-7, 0.781 umol) of 32.7% and a cytotoxicity at 0.781 µmol ([1]; MCF-7, 0.781 umol, read-out: Toxicity %) of 67.3%. The viability at 1.563 µmol ([1]; MCF-7, 1.563 umol) was 19%, the cytotoxicity at 1.563 µmol ([1]; MCF-7, 1.563 umol, read-out: Toxicity %) was 81% and the viability at 3.125 µmol ([1]; MCF-7, 3.125 umol) was 12.8%. It also gave a cytotoxicity at 3.125 µmol ([1]; MCF-7, 3.125 umol, read-out: Toxicity %) of 87.2%, a viability at 6.25 µmol ([1]; MCF-7, 6.25 umol) of 9.01% and a cytotoxicity at 6.25 µmol ([1]; MCF-7, 6.25 umol, read-out: Toxicity %) of 91%. For the same compound, the viability at 12.5 µmol ([1]; MCF-7, 12.5 umol) was 7.65%, the cytotoxicity at 12.5 µmol ([1]; MCF-7, 12.5 umol, read-out: Toxicity %) was 92.3% and the viability at 25 µmol ([1]; MCF-7, 25 umol) was 6.46%. The cytotoxicity at 25 µmol ([1]; MCF-7, 25 umol, read-out: Toxicity %) was 93.5%, the IC50 ([1]; MTT, MCF-7, read-out: Cytotoxicity against cancer cells IC50 MCF-7) was 552.3 ± 1.7 nM and the “Caspase-3 ± SE” value [2] was 1.54 ± 0.11 ng/mL. For the same compound, the “Caspase-3 ± SE” value ([2]; listed as R5) was 1.54 ng/mL, the “caspase-3 expression level, fold increase” value ([2]; HepG-2, vs control cells) was 3.35 fold and the “TNF-alpha ±SE” value ([3]; HepG-2, at IC50 concentrations) was 32.07 ± 2.32 ng/L. For the same compound, the “TNF-alpha ±SE” value ([3]; raw data, HepG2) was 27.34 ng/L, the “IL-6R ± SE” value ([4]; HepG-2, at IC50 concentrations, control 44.10) was 11.93 ± 0.25 ng/L and the IL-6R protein level ([4]; HepG-2, control 44.10%) was 11.93 ng/L. The “IL-6 ±SE” value ([4]; raw data, HepG2, control 44.10) was 28.78 ng/L, the “Caspase-9 ± SE” value [5] was 48.44 ± 1.24 ng/L and the “Caspase-9 ± SE” value ([5]; listed as R5) was 48.44 ng/L. The “caspase-9 expression level, fold increase” value ([5]; HepG-2, vs control cells) was 4.4 fold, the viability at 0.195 µmol ([6]; K-562, 0.195 umol) was 52.8% and the cytotoxicity at 0.195 µmol ([6]; K-562, 0.195 umol, read-out: Toxicity %) was 47.2%. The viability at 0.391 µmol ([6]; K-562, 0.391 umol) was 45.2%, the cytotoxicity at 0.391 µmol ([6]; K-562, 0.391 umol, read-out: Toxicity %) was 54.8% and the viability at 0.781 µmol ([6]; K-562, 0.781 umol) was 31.6%. It also gave a cytotoxicity at 0.781 µmol ([6]; K-562, 0.781 umol, read-out: Toxicity %) of 68.4%, a viability at 1.563 µmol ([6]; K-562, 1.563 umol) of 21.1% and a cytotoxicity at 1.563 µmol ([6]; K-562, 1.563 umol, read-out: Toxicity %) of 78.9%. For the same compound, the viability at 3.125 µmol ([6]; K-562, 3.125 umol) was 10.3%, the cytotoxicity at 3.125 µmol ([6]; K-562, 3.125 umol, read-out: Toxicity %) was 89.7% and the viability at 6.25 µmol ([6]; K-562, 6.25 umol) was 8.78%. For the same compound, the cytotoxicity at 6.25 µmol ([6]; K-562, 6.25 umol, read-out: Toxicity %) was 91.2%, the viability at 12.5 µmol ([6]; K-562, 12.5 umol) was 7.43% and the cytotoxicity at 12.5 µmol ([6]; K-562, 12.5 umol, read-out: Toxicity %) was 92.6%. The viability at 25 µmol ([6]; K-562, 25 umol) was 5.91%, the cytotoxicity at 25 µmol ([6]; K-562, 25 umol, read-out: Toxicity %) was 94.1% and the IC50 ([6]; MTT, K-562, read-out: Cytotoxicity against cancer cells IC50 K-562) was 266.4 ± 1.7 nM. For the same compound, the viability at 0.195 µg/mL ([7]; HepG-2, 0.195 ug/ml) was 93.8%, the cytotoxicity at 0.195 µg/mL ([7]; HepG-2, 0.195 ug/ml, read-out: Toxicity %) was 6.15% and the viability at 0.391 µg/mL ([7]; HepG-2, 0.391 ug/ml) was 75.6%. The cytotoxicity at 0.391 µg/mL ([7]; HepG-2, 0.391 ug/ml, read-out: Toxicity %) was 24.4%, the viability at 0.781 µg/mL ([7]; HepG-2, 0.781 ug/ml) was 62.3% and the cytotoxicity at 0.781 µg/mL ([7]; HepG-2, 0.781 ug/ml, read-out: Toxicity %) was 37.7%. The viability at 1.563 µg/mL ([7]; HepG-2, 1.563 ug/ml) was 47.6%, the cytotoxicity at 1.563 µg/mL ([7]; HepG-2, 1.563 ug/ml, read-out: Toxicity %) was 52.4% and the viability at 3.125 µg/mL ([7]; HepG-2, 3.125 ug/ml) was 23.1%. The cytotoxicity at 3.125 µg/mL ([7]; HepG-2, 3.125 ug/ml, read-out: Toxicity %) was 76.9%, the viability at 6.25 µg/mL ([7]; HepG-2, 6.25 ug/ml) was 11.9% and the cytotoxicity at 6.25 µg/mL ([7]; HepG-2, 6.25 ug/ml, read-out: Toxicity %) was 88.1%. For the same compound, the viability at 12.5 µg/mL ([7]; HepG-2, 12.5 ug/ml) was 9.45%, the cytotoxicity at 12.5 µg/mL ([7]; HepG-2, 12.5 ug/ml, read-out: Toxicity %) was 90.5% and the viability at 25 µg/mL ([7]; HepG-2, 25 ug/ml) was 7.22%. It also gave a cytotoxicity at 25 µg/mL ([7]; HepG-2, 25 ug/ml, read-out: Toxicity %) of 92.8% and an IC50 ([7]; MTT, HepG-2, read-out: Cytotoxicity against cancer cells IC50 HepG-2) of 1436 ± 7.3 nM.
